According to patent US8236761B2, “C-Met receptor regulation by angiotensin IV (AT4) receptor ligands” (Washington State University Research Foundation, priority 2006, dated 2012):
Non-standard residues stand in square brackets, D forms with d. No end group written: not given here. Nle = CCCC[C@H](N)C(=O)O

What was measured:
c-Met receptor = assay: Cross-linking of 125I-COMPOUND 2 or 125I-HGF to HEK293 cell membranes with unlabeled competitor; assay type: binding, human; conditions: 125I-HGF cross-linked to HEK293 cell membranes, FIG. 3B
Description: FIG. 3C: ^125I-Norleual was bound to HEK membranes in the presence or absence of 1.5 nM HGF (n=8) or 1 μM Norleual (n=6). Total binding is reported as percent control (n=10), (*p<0.001). Error bars indicate±SD. […] Error bars indicate SD and data points were performed in duplicate.
Briefly, COMPOUND 2 was iodinated with […] and bound and cross-linked to HEK cell membranes with or without 1 nM COMPOUND 2 or 1 nM hepatocyte growth factor. Following solubilization and separation of free label by molecular sieving, total radioactive counts were determined. The ability of the ligand COMPOUND 2 to compete with hepatocyte growth factor binding to the c-Met receptor was also tested using mouse liver plasma membranes and intact HEK293 cells. Briefly, mouse liver was homogenized and incubated with ^125I-HGF with various concentrations of HGF or COMPOUND 2. Membranes were pelleted and unbound label was removed by washing, and total radioactive counts were determined. Next, HEK293 cell membranes were cross-linked with ^125I-HGF with unlabeled HGF or COMPOUND 2.

c-Met = c-Met (Homo sapiens, UniProt P08581); assay: HGF-induced Met/Gab1 association in HUVEC (IP/IB); assay type: cell-based; conditions: 5 minutes treatment
Description: FIG. 16 depicts inhibition of angiogenesis by Norleual (Compound 2, SEQ ID NO:43) in the mouse aortic ring assay. Rings were incubated in EGM-2 media (Cambrex) with (n=8) or without (n=6) 100 pM Norleual for four days. Digital photos of the rings were taken on day four. FIG. 16A: Quantification of aortic ring angiogenesis. Areas covered by angiogenic sprouts were quantified from day four ring photos, control (−) and Norelual treated (+) (p-value=0.012* and error bars indicate ±SEM). FIG. 16B: HUVECs were treated for 5 minutes with HGF and/or Norleual at indicated concentrations. Lysates were IP with anti-c-Met and IB with anti-c-Met or Gab1.
Immunoprecipitation and Western blotting. Cells were serum starved for two hours in DMEM before treatment. Cells were harvested using RIPA lysis buffer (Upstate Biotechnol. Inc., Lake Placid, N.Y.) with phosphatase inhibitor cocktails 1 and 2 (Sigma, St Louis, Mo., USA). Protein concentration was determined using the BCA assay (Pierce, Rockford, Ill., USA). Lysates were incubated with antibody overnight at 4° C. Immunoprecipitation controls received mouse non-specific Ig (Upstate). […] The film images were digitized and analyzed using TotalLab® software (AmershamPharmacia/GE HealthCare, Piscataway, N.J.).
See Example 1 for Materials and Methods. Angiogenesis was evaluated with the ex vivo mouse aortic ring assay in the presence and absence of Norleual. […]

neovascularization = assay: Disc angiogenesis assay (subcutaneous sponge disc); assay type: in vivo, Sprague Dawley rats; conditions: 50 μg per disc core, 14 days, rat
Description: FIG. 19 depicts effects on angiogenesis of angiotensin-like factors in a rat in vivo disc angiogenesis assay. Vascularization was quantified by digital image analysis of fixed and stained discs recovered from animals 14 days after subcutaneous implantation of sponge discs containing the indicated compounds.
Disc Angiogenesis Assay. […] A 2 mm core was removed from the center of each disc, saturated with 50 μg of Nle^1-AngIV (SEQ ID NO:41), Nle^1-Leu^3-Ψ(CH2NH2)^3-4-AngIV, Hexamide, or ethanol (control), air dried, then sealed using a fixative (Elvax, DuPont) to allow sustained delivery of the drug treatment into the disc and adjacent tissues. The cores were dried for 30 min, then reinserted into the sponge discs. Impermeable top and bottom covers were prepared by coating 10 mm diameter paper discs with a plexiglass coating, then glued to the top and bottom of the sponge discs, leaving only the rim of the disc available for centripetal cellular penetration. Just prior to implantation, the discs were soaked briefly in sterile saline.
Thirty-two Sprague Dawley female rats (225-275 gr) were used to evaluate four compounds for angiogenic or anti-angiogenic properties using the disc angiogenesis assay. Animals were anesthetized using sodium pentobarbital (40 mg/kg IP). The dorsum was then shaved and aseptically prepped. Each animal received four discs. Animals receiving treated discs were implanted with 2 treated discs and 2 ethanol-soaked control discs. Thus, in a group of 4 animals there were 8 treatment discs, and 8 control discs. These control discs were used to determine whether the ligand had potential systemic effects. Another group of 4 animals received only ethanol-soaked control discs (spontaneous growth controls or SGC discs) for an n=16. However, one SGC was fragmented during processing leaving an n=15.
Four 2 cm cutaneous incisions were made along the dorsum (left thoracic, right thoracolumbar, left thoracolumbar, and right lumbar), and subcutaneous pouches opened in the fascia using blunt dissection. Discs were moistened in sterile saline, inserted deep to the pouch, and the skin closed with sterile surgical staples. Animals were recovered under heat lamps until sternally recumbent, then individually housed for 14 days in an AAALAC accredited facility (water and food ad libitum; 12/12 hour light cycle).
After 14 days the animals were euthanized in a CO2 chamber and the discs were removed. […] Cellular penetration into the discs was quantified using a digital imaging system (Imaging Research Inc., St. Catharines, Ontario, Canada). The total area of the disc was calculated, as was the area containing stained cells. […]
Results. Following staining with toludine blue or Factor VIII, neovascularization was quantitated by densitometry.

HUVECs = assay: Extracellular matrix related gene microarray in HUVECs; assay type: cell-based, human; conditions: 8 days, 1 pM
Description: Angiotensin-like factors as candidate c-Met receptor ligands were tested for the ability to modulate expression of extracellular matrix-related proteins in human umbilical vein endothelial cells (HUVECs) by gene microarray. Briefly, HUVECs were treated for 8 days in the presence or absence of test compounds at a concentration of 1 pM; Norleual (Compound 2, SEQ ID NO:43) was used as an exemplary angiotensin-like factor. RNA was harvested and transcriptional activities of 96 extracellular matrix related genes were assessed using gene microarrays.

Chain of c-Met (P08581 308-1390 limits assumed): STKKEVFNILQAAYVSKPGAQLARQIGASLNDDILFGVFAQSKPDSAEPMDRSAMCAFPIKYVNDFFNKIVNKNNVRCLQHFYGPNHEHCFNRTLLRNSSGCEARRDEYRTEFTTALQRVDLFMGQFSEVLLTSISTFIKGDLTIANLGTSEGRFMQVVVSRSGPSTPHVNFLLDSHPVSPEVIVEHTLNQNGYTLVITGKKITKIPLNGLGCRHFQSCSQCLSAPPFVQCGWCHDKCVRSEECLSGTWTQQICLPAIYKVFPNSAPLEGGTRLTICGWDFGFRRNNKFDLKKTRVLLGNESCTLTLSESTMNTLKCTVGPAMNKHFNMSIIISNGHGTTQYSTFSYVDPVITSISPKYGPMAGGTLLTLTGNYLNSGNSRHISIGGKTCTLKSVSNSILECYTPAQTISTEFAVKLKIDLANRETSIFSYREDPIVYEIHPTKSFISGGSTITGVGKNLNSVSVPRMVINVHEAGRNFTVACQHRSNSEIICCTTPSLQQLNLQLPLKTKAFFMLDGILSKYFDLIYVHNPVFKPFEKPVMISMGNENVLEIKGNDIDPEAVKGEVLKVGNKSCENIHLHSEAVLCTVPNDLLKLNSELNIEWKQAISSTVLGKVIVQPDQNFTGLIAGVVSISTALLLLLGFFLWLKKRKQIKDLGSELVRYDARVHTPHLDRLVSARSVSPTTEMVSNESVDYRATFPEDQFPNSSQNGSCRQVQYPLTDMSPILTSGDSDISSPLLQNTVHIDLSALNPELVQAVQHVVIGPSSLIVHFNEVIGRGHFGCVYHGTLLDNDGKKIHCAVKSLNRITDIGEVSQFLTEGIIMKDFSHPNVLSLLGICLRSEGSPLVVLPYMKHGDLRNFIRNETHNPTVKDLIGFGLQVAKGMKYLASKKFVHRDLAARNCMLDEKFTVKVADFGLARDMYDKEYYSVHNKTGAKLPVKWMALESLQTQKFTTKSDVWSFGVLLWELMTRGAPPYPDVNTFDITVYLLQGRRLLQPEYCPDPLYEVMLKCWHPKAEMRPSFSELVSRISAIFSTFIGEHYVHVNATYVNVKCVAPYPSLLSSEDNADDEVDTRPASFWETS
Chain of c-Met (P08581 25-307 limits assumed): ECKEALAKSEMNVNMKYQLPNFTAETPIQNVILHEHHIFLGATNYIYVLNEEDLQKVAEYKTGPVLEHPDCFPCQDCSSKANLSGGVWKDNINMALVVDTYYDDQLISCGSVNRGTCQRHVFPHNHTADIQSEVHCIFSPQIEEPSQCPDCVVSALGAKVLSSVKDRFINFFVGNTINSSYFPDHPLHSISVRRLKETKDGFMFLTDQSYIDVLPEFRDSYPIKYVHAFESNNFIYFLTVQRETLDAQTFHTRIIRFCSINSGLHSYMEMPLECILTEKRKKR

Nle-Tyr-Leu-ψ-His-Pro-Phe ([Nle]YLHPF; also: reduced peptide bond psi(CH2NH2) between Leu and His) [Norleual]
Mode of inhibition of HGF binding to the c-Met receptor (c-Met receptor): competitive inhibitor of HGF binding to the c-Met receptor | HGF-induced Met/Gab1 association in HUVEC (c-Met): inhibited | Effect on angiogenesis in disc assay versus SGC discs (neovascularization): antagonist activity | Change in gene expression versus control: CD44, catenin, catenin β, catenin δ1, MMP-1, PAI-1, thrombospondin 1, integrin α-2 (HUVECs): at least two fold
